Results as given in patent US12521438B2, “SMARCA degraders and uses thereof” (Kymera Therapeutics, Inc., priority 2019, dated 2026).

Key:
Format in all cases: cell-based
[1] = target: T1, SMARCA4 (Homo sapiens, UniProt P51532); test: SMARCA4 Western blot MV4-11 degradation; details: MV4-11 cells, 24 hours; for Dmax: read-out: SMARCA4 WB MV411 degradation 24h: Average Dmax %; for DC50: read-out: SMARCA4 WB MV411 degradation 24h: Average external-Abs DC50
T1 construct: endogenous in cells; host or cells: MV4-11
T1 sequence (P51532 whole entry): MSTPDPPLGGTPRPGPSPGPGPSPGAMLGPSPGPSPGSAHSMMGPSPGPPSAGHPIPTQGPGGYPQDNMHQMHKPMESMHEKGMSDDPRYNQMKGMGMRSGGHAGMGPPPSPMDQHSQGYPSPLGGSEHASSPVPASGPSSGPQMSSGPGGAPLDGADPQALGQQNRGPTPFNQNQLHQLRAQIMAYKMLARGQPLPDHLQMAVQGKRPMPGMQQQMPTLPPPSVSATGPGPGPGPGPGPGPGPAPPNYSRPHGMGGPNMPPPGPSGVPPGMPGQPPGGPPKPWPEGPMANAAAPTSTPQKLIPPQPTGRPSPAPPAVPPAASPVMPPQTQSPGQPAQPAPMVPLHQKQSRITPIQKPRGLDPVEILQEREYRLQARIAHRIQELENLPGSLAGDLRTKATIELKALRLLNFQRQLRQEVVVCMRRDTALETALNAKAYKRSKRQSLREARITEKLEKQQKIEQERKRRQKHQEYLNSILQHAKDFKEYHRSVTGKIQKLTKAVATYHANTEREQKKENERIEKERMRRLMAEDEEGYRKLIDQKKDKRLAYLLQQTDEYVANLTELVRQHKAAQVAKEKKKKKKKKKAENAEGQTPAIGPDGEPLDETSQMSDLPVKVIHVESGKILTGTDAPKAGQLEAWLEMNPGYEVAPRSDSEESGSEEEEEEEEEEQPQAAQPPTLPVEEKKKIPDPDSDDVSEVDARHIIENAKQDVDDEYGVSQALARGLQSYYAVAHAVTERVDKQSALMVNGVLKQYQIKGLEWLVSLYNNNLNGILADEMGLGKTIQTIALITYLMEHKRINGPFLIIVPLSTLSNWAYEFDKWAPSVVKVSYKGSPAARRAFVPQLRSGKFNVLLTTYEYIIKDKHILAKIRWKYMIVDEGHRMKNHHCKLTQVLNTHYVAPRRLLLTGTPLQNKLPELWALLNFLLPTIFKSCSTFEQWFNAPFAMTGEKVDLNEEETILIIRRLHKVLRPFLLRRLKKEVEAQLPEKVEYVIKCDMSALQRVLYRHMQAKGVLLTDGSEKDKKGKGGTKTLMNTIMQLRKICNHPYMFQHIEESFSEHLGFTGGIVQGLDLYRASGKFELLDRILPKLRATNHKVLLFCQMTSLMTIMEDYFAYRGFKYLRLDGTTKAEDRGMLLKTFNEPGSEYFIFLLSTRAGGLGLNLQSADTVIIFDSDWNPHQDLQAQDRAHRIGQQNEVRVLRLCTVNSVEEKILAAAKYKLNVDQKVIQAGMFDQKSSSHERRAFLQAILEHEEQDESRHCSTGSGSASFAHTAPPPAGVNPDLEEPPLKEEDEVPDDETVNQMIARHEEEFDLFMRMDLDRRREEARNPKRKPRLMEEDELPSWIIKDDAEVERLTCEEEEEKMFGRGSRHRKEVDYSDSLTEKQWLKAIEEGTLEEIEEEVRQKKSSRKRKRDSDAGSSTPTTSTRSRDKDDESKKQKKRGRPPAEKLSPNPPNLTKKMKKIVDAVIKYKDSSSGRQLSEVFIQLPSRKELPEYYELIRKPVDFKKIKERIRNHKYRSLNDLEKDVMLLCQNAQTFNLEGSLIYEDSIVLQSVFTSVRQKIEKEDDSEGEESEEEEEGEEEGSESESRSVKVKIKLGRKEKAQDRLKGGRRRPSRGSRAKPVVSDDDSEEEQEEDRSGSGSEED
Experimental: (§1) Example 10. SMARCA2 and SMARCA 4 Western Blot MV4-11 Degradation
(§2) Cells were seeded into 6-well plates (MV4-11: 4×10^6 cells/well/1 ml) and 1 ml of 2× compound solution was added into the well to make the final concentration and the plates were mixed well and incubated for 24 hours (No cytotoxicity was observed). The cell were collected with media and spun at 3000 rpm for 5 minutes. The supernatant was aspirated and the well and the cells were washed with cold PBS once and combined for centrifugation again; the supernatant aspirated again. 200 ul pre-chilled RIPAlysis buffer (Boston BioProducts BP-115D) with protease/phosphatase inhibitor (Roche 05892791001/Roche 04906837001) was directly added into the tube to lyze the cells for 20 minutes on ice. The cell lysate were collected into EP tubes and spun at 13000 rpm for 20 minutes and 72 ul supernatant was transferred to a fresh EP tube containing 18 ul of 5× loading buffer (Beyotime Bio P0015) to make the loading samples. The samples were heated to 100° C. for 10 minutes and cooled to RT and microcentrifuged. 20 ul of samples were loaded onto SDS-PAGE gel (Novex, WG1402BOX) and the gel was run at 80 V for 20 minutes and 120 V for 1.5 hours. The samples were electrotransfer to a NC membrane using wet-transfer method with 250 mA for 2.5 hours. The membrane was blocked with LICOR blocking buffer (LI-COR, 927-50000) for 1 hour. The membrane was washed three times with TBST (CST #9997S), 5 minutes each. Incubation was performed with primary antibody prepared in blocking buffer with 0.1% Tween-20 (Solarbio, P8220) at 4° C. overnight (Anti-SMARCA2/BRM antibody (ab15597) 1:500; Anti-BRG1 antibody [EPR3912] (ab108318) 1:1000; Rabbit anti-Baf180 antibody [EPR15860] (Abcam,ab196022) 1:1000; mouse anti-beta-Actin (8H10D10) (CST #3700) 1:10000). The membrane was washed three times with TBST, 5 minutes each. Incubation with secondary antibody was performed for 1 hour at RT (anti-rabbit IgG (Licor, 926-32211) 1:5000; anti-mouse IgG (LI-COR, 926-68070) 1:5000). The membrane was washed three times with 5 minutes each and lastly the LiCOR was read.

[2] = target: T2, SMARCA2 (Homo sapiens, UniProt P51531); test: MSD SMARCA2 degradation in NCI-H1299 cell line; parameters: endogenous in cells; details: NCI-H1299 cells, 24 hours
T2 sequence (P51531 whole entry): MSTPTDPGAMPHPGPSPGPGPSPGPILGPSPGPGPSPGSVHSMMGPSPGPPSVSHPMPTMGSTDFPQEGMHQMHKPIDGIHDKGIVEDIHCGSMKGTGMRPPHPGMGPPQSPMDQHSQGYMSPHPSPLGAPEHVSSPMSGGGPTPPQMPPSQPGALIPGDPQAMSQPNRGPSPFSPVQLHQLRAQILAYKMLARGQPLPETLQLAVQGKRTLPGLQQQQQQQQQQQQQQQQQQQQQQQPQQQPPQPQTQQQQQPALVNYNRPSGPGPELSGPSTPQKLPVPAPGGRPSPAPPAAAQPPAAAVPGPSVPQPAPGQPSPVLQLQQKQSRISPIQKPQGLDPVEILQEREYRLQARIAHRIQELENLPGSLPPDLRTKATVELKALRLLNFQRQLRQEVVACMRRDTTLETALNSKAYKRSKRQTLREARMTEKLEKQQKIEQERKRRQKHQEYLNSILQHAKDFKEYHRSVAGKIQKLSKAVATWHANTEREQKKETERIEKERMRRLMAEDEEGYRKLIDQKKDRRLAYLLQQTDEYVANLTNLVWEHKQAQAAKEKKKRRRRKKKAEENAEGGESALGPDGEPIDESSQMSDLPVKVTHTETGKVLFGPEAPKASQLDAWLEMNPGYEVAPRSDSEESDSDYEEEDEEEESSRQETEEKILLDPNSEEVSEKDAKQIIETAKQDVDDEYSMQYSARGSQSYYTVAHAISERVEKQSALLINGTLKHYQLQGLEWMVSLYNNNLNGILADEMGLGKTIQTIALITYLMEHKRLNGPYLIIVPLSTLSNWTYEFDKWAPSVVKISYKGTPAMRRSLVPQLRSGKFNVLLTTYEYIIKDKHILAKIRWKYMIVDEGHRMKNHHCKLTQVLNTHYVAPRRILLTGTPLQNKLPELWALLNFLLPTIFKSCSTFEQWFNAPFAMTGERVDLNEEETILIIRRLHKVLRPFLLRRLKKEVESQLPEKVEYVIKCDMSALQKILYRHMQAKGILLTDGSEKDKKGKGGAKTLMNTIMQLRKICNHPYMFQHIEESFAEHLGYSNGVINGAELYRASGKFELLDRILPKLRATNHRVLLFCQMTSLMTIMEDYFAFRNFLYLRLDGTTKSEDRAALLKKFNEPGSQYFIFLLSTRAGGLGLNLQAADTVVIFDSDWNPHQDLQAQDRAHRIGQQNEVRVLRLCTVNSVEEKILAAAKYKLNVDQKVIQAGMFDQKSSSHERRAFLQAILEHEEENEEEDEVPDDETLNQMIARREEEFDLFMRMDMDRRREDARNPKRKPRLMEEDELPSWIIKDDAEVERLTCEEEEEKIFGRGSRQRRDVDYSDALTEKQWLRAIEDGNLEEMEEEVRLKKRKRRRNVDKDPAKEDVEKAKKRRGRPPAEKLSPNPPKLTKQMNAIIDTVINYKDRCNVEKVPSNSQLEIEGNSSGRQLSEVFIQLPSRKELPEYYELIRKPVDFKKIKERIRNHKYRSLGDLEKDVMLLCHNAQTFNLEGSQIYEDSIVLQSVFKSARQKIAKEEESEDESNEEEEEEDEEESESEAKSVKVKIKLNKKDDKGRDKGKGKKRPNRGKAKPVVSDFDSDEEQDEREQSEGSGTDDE
Experimental: Example 8. MSD SMARCA2 Degradation in NCI-H1299 Cell Line
Cell Culture: Cells were Cultured in Exponential Growth Phase.
Compound Preparation and Treatment: NCI-H1299 cells were seeded into the 96-well plate at 4.0*10^4 cells per 100 ul per well. Incubate the plate in the incubator overnight. The next day, compounds were diluted to designed stock concentration by TECAN, then perform a 3 fold, 9-point dilution via transferring 15 uL compound into 30 μL DMSO using Apricot. 200 nL diluted compound from compound source plate were transferred into the 96-intermediate plate as designated by using Echo550, followed with 100 ul culture medium to make the 2× compound solution. Cell plate were changed with 80 ul of fresh culture medium and 80 ul of 2× compound solution was added into the well to achieve the final designed concentration. Cell plate was then shaken at 720 rpm for 5 min and incubated for 24 hours in the incubator.
Sample Preperation: Media was aspirated from the cultures and the plate was washed with PBS twice. 60 ul of pre-chilled PIPA lysis buffer (Boston BioProducts BP-115D) with protease inhibitor were directly added into the well to lyze the cells for 20 minutes at 4° C. Cell lysates were collected.
MSD Procedure: The MSD plate was coated with 40 ul cell lysate and incubated at 4° C. overnight. The next day, the MSD coated bare plate was washed 3 times with 150 ul 1×TBST per well, blocked with 150 ul of blocking buffer per well, and shaken for 1 hour at RT, 600 rpm. Blocking buffer was 3% Blocker A in TBST. MSD plate was then washed 3 times with 150 ul 1× TBST per well and Primary Detection antibody (Rabbit anti-SMARCA2/BRM antibody, 100 μg/ml, ab223735) was added to a final [conc.]: 0.3 ug/ml, 25 ul/well and shaken for 1 hour at RT, 600 rpm. Antibody was prepared in Antibody Detection buffer (1% Blocker A in 1×TBST). The MSD plate was then washed 3 times with 150 ul 1×TBST per well. Secondary Detection antibody (SULFO-TAG anti-species antibody) was then added to a final [conc.]: 1 ug/ml, 25 ul/well, and shaken for 1 hour at RT, 600 rpm. Antibodies were prepared in Antibody Detection buffer (1% Blocker A in 1×TBST). MSD plate was washed 3 times with 150 ul 1×TBST per well and 2× MSD reading buffer was added, 150 ul per well, and diluted from 4× with water. MSD instrument was then read.
Data Analysis: The percentage of relative level of SMARCA2 level was calculated following equation below.
LC: A2780, SMARCA2 negative cells. HC: NCI-H1299 cells treated with DMSO.

[3] = target: T2, SMARCA2; test: MSD SMARCA2 degradation in A549 cell line; parameters: endogenous in cells; host or cells: A549; details: A549 cells, 24 hours; for DC50: read-out: SMARCA2 MSD A549 degradation 24h: Average external-Abs DC50
Experimental: Example 9. MSD SMARCA2 Degradation in A549 Cell Line
Cells were seeded into 96-well plates (A549 cells: 2×10^4 cells/well/100 ul media) abd incubated overnight. The next day, 200 nl compound were added into the intermediate plate with Echo (Labcyte 550) from source plate containing a 3-fold serial dilution from top concentration of 1 mM. The culture medium was changed with 80 ul of fresh medium and 80 ul of 2× compound solution was added into the well to make a final concentration of 1000 nM, 333.3 nM, 111.1 nM, 37.04 nM, 12.35 nM, 4.115 nM, 1.372 nM, 0.457 nM, 0.152 nM and 0 nM (DMSO). The wells were mixed and then incubated for 24 hours. The media was aspirated from the cultures and 60 ul pre-chilled PIPA lysis buffer (Boston BioProducts BP-115D) with protease/phosphatase inhibitor (Roche 05892791001/Roche 04906837001) was added into the well to lyze the cells for 20 minutes at 4° C. The MSD plate (L15XA) was coated with 40 ul cell lysate and incubated at 4° C. overnight. The next day, the plate was washed three times with TBST (CST #9997S), 150 ul/well. The MSD plates was blocked with 150 ul blocking buffer per well and shaked for 1 hr at RT, 600 rpm. The blocking buffer was 3% Blocker A (MSD, R93BA-4) in TBST. The MSD plate was washed three times with 150 ul/well of TBST and 25 ul/well of detection antibody (Rabbit anti-SMARCA2/BRM antibody, 100 μg/ml, ab223735) was added at final concentration of 1 ug/ml diluted in 1% Blocking buffer and shaken for 1 hour at RT, 600 rpm. The MSD plate was washed three times with 150 ul/well of TBST and 25 ul/well of SULFO-TAG anti-rabbit antibody (MSD, R32AB-1) was added at final concentration of 1 ug/ml diluted in 1% Blocking buffer and shaken for 1 hour at RT, 600 rpm. The MSD plate was washed three times with 150 ul/well of TBST and 150 ul/well of 2×MSD reading buffer diluted from 4× (MSD, R92TC-2) with water was added. Lastly, the MSD instrument was read.

[4] = target: T2, SMARCA2; test: SMARCA2 Western blot MV4-11 degradation; parameters: endogenous in cells; details: MV4-11 cells, 24 hours
Experimental: as §1
as §2, with “The membrane was blocked with LICOR blocking buffer (LI-COR, 927-50000) for 1 hour. The membrane was washed three times with TBST (CST #9997S), 5 minutes each. Incubation was performed with primary antibody prepared in blocking buffer with 0.1% Tween-20 (Solarbio, P8220) at 4° C. overnight (Anti-SMARCA2/BRM antibody (ab15597) 1:500; Anti-BRG1 antibody [EPR3912] (ab108318) 1:1000; Rabbit anti-Baf180 antibody [EPR15860] (Abcam,ab196022) 1:1000; mouse anti-beta-Actin (8H10D10) (CST #3700) 1:10000). The membrane was washed three times with TBST, 5 minutes each. Incubation with secondary antibody was performed for 1 hour at RT (anti-rabbit IgG (Licor, 926-32211) 1:5000; anti-mouse IgG (LI-COR, 926-68070) 1:5000).” left out

Dmax [1] [%]	DC50 [1] [nM]	Dmax [2] [%]	Dmax [3] [%]	DC50 [3] [nM]	Dmax ([4]; read-out: SMARCA2 WB MV411 degradation 24h: Average Dmax %) [%]	DC50 ([4]; read-out: SMARCA2 WB MV411 degradation 24h: Average external-Abs DC50) [nM]	Compound
< 50	100 to 500	< 50	–	–	–	–	Cn1c(=O)n(C2CCC(=O)NC2=O)c2cccc(CCCOCCCN3CCC(c4c[nH]c5nnc(-c6ccccc6O)cc45)CC3)c21 (stereo not shown) [I-6]
< 50	< 100	< 50	–	–	–	–	Cn1c(=O)n(C2CCC(=O)NC2=O)c2ccc(CCCCCCCCCN3CCC(c4c[nH]c5nnc(-c6ccccc6O)cc45)CC3)cc21 (stereo not shown) [I-7]
–	–	50 to 70	–	–	–	–	Cc1ncsc1-c1ccc(CNC(=O)[C@@H]2C[C@@H](O)CN2C(=O)[C@@H](NC(=O)CCCCCCCCCN2CCC(c3c[nH]c4nnc(-c5ccccc5O)cc34)CC2)C(C)(C)C)cc1 [I-8]
–	–	< 50	–	–	–	–	Cc1ncsc1-c1ccc(CNC(=O)[C@@H]2C[C@@H](O)CN2C(=O)[C@@H](NC(=O)CCCCCN2CCC(c3c[nH]c4nnc(-c5ccccc5O)cc34)CC2)C(C)(C)C)cc1 [I-9]
< 50	< 100	< 50	–	–	–	–	Cn1c(=O)n(C2CCC(=O)NC2=O)c2cccc(CCCCCN3CCC(c4c[nH]c5nnc(-c6ccccc6O)cc45)CC3)c21 (stereo not shown) [I-10]
< 50	–	< 50	–	–	–	–	Cn1c(=O)n(C2CCC(=O)NC2=O)c2cccc(CCCN3CCC(c4c[nH]c5nnc(-c6ccccc6O)cc45)CC3)c21 (stereo not shown) [I-11, 3-(4-(3-(4-(3-(2-hydroxyphenyl)-7H-pyrrolo[2,3-c]pyridazin-5-yl)piperidin-1-yl)propyl)-3-methyl-2-oxo-2,3-dihydro-1H-benzo[d]imidazol-1-yl)piperidine-2,6-dione]
–	–	< 50	–	–	–	–	Cc1ncsc1-c1ccc(CNC(=O)[C@@H]2C[C@@H](O)CN2C(=O)[C@@H](NC(=O)CCCCCCCN2CCC(c3c[nH]c4nnc(-c5ccccc5O)cc34)CC2)C(C)(C)C)cc1 [I-12]
< 50	< 100	< 50	–	–	–	–	Cn1c(=O)n(C2CCC(=O)NC2=O)c2cccc(CN3CCC(c4c[nH]c5nnc(-c6ccccc6O)cc45)CC3)c21 (stereo not shown) [I-13]
50 to 70	> 1000	–	> 90	< 100	> 90	< 100	Cc1ncsc1-c1ccc(CNC(=O)[C@@H]2C[C@@H](O)CN2C(=O)[C@@H](NC(=O)[C@H]2CC[C@H](c3cnc(N4CCC(c5c[nH]c6nnc(-c7ccccc7O)cc56)CC4)nc3)CC2)C(C)(C)C)cc1 [I-46, (2S,4R)-4-hydroxy-1-((S)-2-((1r,4S)-4-(2-(4-(3-(2-hydroxyphenyl)-7H-pyrrolo[2,3-c]pyridazin-5-yl)piperidin-1-yl)pyrimidin-5-yl)cyclohexanecarboxamido)-3,3-dimethylbutanoyl)-N-(4-(4-methylthiazol-5-yl)benzyl)pyrrolidine-2-carboxamide]
> 90	> 1000	–	< 50	> 1000	–	–	Cc1ncsc1-c1ccc(CNC(=O)[C@@H]2C[C@@H](O)CN2C(=O)[C@@H](NC(=O)CN2CCC(c3cc(N4CCC(c5c[nH]c6nnc(-c7ccccc7O)cc56)CC4)ncn3)CC2)C(C)(C)C)cc1 [I-54, (2S,4R)-4-hydroxy-1-((S)-2-(2-(4-(6-(4-(3-(2-hydroxyphenyl)-7H-pyrrolo[2,3-c]pyridazin-5-yl)piperidin-1-yl)pyrimidin-4-yl)piperidin-1-yl)acetamido)-3,3-dimethylbutanoyl)-N-(4-(4-methylthiazol-5-yl)benzyl)pyrrolidine-2-carboxamide]
> 90	> 1000	–	< 50	> 1000	–	–	NCC#Cc1cnc(N2CCC(c3c[nH]c4nnc(-c5ccccc5O)cc34)CC2)nc1 [I-55, 2-(5-(1-(5-(3-aminoprop-1-yn-1-yl)pyrimidin-2-yl)piperidin-4-yl)-7H-pyrrolo[2,3-c]pyridazin-3-yl)phenol]
